Test results as given in US9353082B2, “Pharmaceutical compounds” (BIAL—PORTELA & CA, S.A., priority 2008, dated 2016).

Biological target: T1, FAAH (Rattus norvegicus, UniProt P97612)
T1 construct: Frozen brains (without cerebellum) from Wistar rats were used; from tissue; host or cells: Wistar rat brain (without cerebellum), washed membrane pellets
T1 sequence (P97612 1-579): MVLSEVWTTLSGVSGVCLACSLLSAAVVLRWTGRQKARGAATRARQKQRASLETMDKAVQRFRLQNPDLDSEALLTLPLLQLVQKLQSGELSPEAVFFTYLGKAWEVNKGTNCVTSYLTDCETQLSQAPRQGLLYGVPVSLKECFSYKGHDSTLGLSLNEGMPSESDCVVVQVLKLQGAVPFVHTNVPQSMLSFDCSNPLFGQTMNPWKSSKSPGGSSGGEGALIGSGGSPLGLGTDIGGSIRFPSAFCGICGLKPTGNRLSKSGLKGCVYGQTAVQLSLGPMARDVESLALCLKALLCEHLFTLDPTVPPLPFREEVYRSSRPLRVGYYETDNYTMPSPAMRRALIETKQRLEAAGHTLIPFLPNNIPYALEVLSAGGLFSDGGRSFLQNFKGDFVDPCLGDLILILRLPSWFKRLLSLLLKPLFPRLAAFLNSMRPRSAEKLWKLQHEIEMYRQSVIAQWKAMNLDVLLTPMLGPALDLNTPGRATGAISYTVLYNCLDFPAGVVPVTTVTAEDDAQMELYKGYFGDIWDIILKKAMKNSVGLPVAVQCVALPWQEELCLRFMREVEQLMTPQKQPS
Assay: In vitro FAAH activity in rat brain membranes, 3H-AEA substrate, % of control
Format: biochemical, Wistar rats
Conditions: low value = strong inhibitor; for In Vitro FAAH activity, 100 nM: 100 nM test compound; for In Vitro 100 nM (FAAH activity, % of control): rat brain membranes, compound at 100 nM
How it was run: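 Wistar rat brain membranes (5 μg protein) preincubated 15 min at 37 °C with compound at 10 μM or 0.1 μM (0.1% DMSO), then 2 μM AEA including 3H-AEA with 0.1% BSA, Tris pH 7.6, 10 min. 3H-ethanolamine counted after charcoal stop; % of no-compound control after blank subtraction.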

| In Vitro FAAH activity, 100 nM | In Vitro 100 nM (FAAH activity, % of control) | Compound |
| --- | --- | --- |
| 95.8 % of control |  | CC(C)N(Cc1ccccc1)C(=O)n1cnc(-c2ccc(Cl)cc2)c1 [Compound 249, N-benzyl-4-(4-chlorophenyl)-N-isopropyl-1H-imidazole-1-carboxamide] |
| 91.7 % of control |  | CC(C)(C)N(Cc1ccccc1)C(=O)n1cnc(-c2ccccc2)c1 [Compound 251, N-benzyl-N-tert-butyl-4-phenyl-1H-imidazole-1-carboxamide] |
| 83.6 % of control |  | CC(C)(C)N(Cc1ccccc1)C(=O)n1cnc(-c2ccc(Cl)cc2)c1 [Compound 252, N-benzyl-N-tert-butyl-4-(4-chlorophenyl)-1H-imidazole-1-carboxamide] |
| 96.7 % of control |  | COc1cccc(-c2cn(C(=O)N(Cc3ccccc3)C(C)C)cn2)c1 [Compound 255, N-benzyl-N-isopropyl-4-(3-methoxyphenyl)-1H-imidazole-1-carboxamide] |
| 105.6 % of control |  | COc1cccc(-c2cn(C(=O)N(Cc3ccccc3)C(C)(C)C)cn2)c1 [Compound 256, N-benzyl-N-tert-butyl-4-(3-methoxyphenyl)-1H-imidazole-1-carboxamide] |
| 7.5 % of control |  | CN(C(=O)n1cnc(-c2cccc(O)c2)c1)C1CCCC1 [Compound 262, N-cyclopentyl-4-(3-hydroxyphenyl)-N-methyl-1H-imidazole-1-carboxamide] |
| 99.6 % of control |  | CC(C)N(Cc1ccccc1)C(=O)n1cnc(-c2cccc(O)c2)c1 [Compound 265, N-benzyl-4-(3-hydroxyphenyl)-N-isopropyl-1H-imidazole-1-carboxamide] |
| 104.1 % of control |  | CC1(C)OCCN1C(=O)n1cnc(-c2ccccc2)c1Cl [Compound 268, (5-chloro-4-phenyl-1H-imidazol-1-yl)(2,2-dimethyloxazolidin-3-yl)methanone] |
| 55.8 % of control |  | COc1ccccc1-c1cn(C(=O)N(C)C2CCCCC2)cn1 [Compound 271, N-cyclohexyl-4-(2-methoxyphenyl)-N-methyl-1H-imidazole-1-carboxamide] |
|  | 85 % of control | CN(C(=O)n1cnc(-c2ccc(Cl)c(Cl)c2)c1)C1CCCCC1 [Compound 274, N-cyclohexyl-4-(3,4-dichlorophenyl)-N-methyl-1H-imidazole-1-carboxamide] |
|  | 111.8 % of control | CC1(C)COCN1C(=O)n1cnc(-c2ccc(Cl)cc2)c1Cl [Compound 280, (5-chloro-4-(4-chlorophenyl)-1H-imidazol-1-yl)(4,4-dimethyloxazolidin-3-yl)methanone] |
|  | 75.1 % of control | CN(C(=O)n1cnc(-c2ccccc2)n1)C1CCCCC1 [Compound 283, N-cyclohexyl-N-methyl-3-phenyl-1H-1,2,4-triazole-1-carboxamide] |
|  | 114.8 % of control | CN(C(=O)n1cnc(-c2cccc(OCc3ccccc3)c2)c1)C12CC3CC(CC(C3)C1)C2 [Compound 288, 4-[3-(benzyloxy)phenyl]-N-methyl-N-tricyclo[3.3.1.13,7]dec-1-yl-1H-imidazole-1-carboxamide] |
|  | 2.5 % of control | O=C(N1COC(c2ccccc2)C1)n1cnc(-c2ccc(F)c(F)c2)c1 (centres unmarked) [Compound 308, (4-(3,4-difluorophenyl)-1H-imidazol-1-yl)(5-phenyloxazolidin-3-yl)methanone] |

The next lines start with the molecule.

| Compound | In Vitro FAAH activity, 100 nM | In Vitro 100 nM (FAAH activity, % of control) |
| --- | --- | --- |
| O=C(N1CCS(=O)(=O)C1)n1cnc(-c2ccc(Cl)cc2)n1 [Compound 253, 3-(4-chlorophenyl)-1-[(1,1-dioxido-1,3-thiazolidin-3-yl)carbonyl]-1H-1,2,4-triazole] | 107.7 % of control |  |
| CCOc1cccc(-c2cccc(-c3cn(C(=O)N(C)C4CCCCC4)cn3)c2)c1 [Compound 258, N-cyclohexyl-4-(3'-ethoxybiphenyl-3-yl)-N-methyl-1H-imidazole-1-carboxamide] | 39.9 % of control |  |
| CN(C(=O)n1cnc(-c2cccc(-c3cc(Cl)ccc3F)c2)c1)C1CCCCC1 [Compound 259, 4-(5′-chloro-2′-fluorobiphenyl-3-yl)-N-cyclohexyl-N-methyl-1H-imidazole-1-carboxamide] | 33.7 % of control |  |
| CN(C(=O)n1nnc2ccccc21)C1CCCC1 [Compound 266, N-cyclopentyl-N-methyl-1H-benzo[d][1,2,3]triazole-1-carboxamide] | 0.2 % of control |  |
| CC1(C)COCN1C(=O)n1c(Cl)nc(-c2ccc(Cl)cc2)c1Cl [Compound 269, (2,5-dichloro-4-(4-chlorophenyl)-1H-imidazol-1-yl)(4,4-dimethyloxazolidin-3-yl)methanone] | 106.2 % of control |  |
| CCC1CN(C(=O)n2cnc(-c3ccccc3)c2)C(C)(C)O1 (centres unmarked) [Compound 270, (5-ethyl-2,2-dimethyloxazolidin-3-yl)(4-phenyl-1H-imidazol-1-yl)methanone] | 113.1 % of control |  |
| CN(C(=O)n1cnc(-c2ccc(Cl)cc2)c1)C1CCCCC1 [Compound 277, 4-(4-chlorophenyl)-N-cyclohexyl-N-methyl-1H-imidazole-1-carboxamide] |  | 72.1 % of control |
| COc1ccc(-c2cn(C(=O)N(C)C3CCCC3)cn2)cc1OC [Compound 281, N-cyclopentyl-4-(3,4-dimethoxyphenyl)-N-methyl-1H-imidazole-1-carboxamide] |  | 25.5 % of control |
| CC1(C)COCN1C(=O)n1cnc(-c2ccccc2)n1 [Compound 285, (4,4-dimethyloxazolidin-3-yl)(3-phenyl-1H-1,2,4-triazol-1-yl)methanone] |  | 85.4 % of control |
